Literature values as cited in publication PMC6673652 (Nature protocols, 2018).
Like-named read-outs stand apart in the source and are kept apart here.

Experiments:
[1] = test system: BBB organoids
[2] = Cy5.5-labeled peptide, 5 μM, 3 hrs, previously tested

BBB organoid permeability [1]	BBB penetration in vivo (in vivo)	Compound	other results
–	–	Nc1cc(C(F)(F)F)c(-c2cc(N3CCOCC3)nc(N3CCOCC3)n2)cn1 [BKM120]	BBB crossing as known from literature: known to cross the BBB
–	–	CC(C)(C)c1nc(-c2cccc(NS(=O)(=O)c3c(F)cccc3F)c2F)c(-c2ccnc(N)n2)s1 [Dabrafenib]	BBB penetration as known from literature: limited BBB penetration
High	Yes[6],[29]	TFFYGGSRGKRNNFKTEEY [Angiopep-2]	BBB crossing as known from literature (in vivo): known to cross the BBB via receptor mediated transcytosis
–	–	ZAGYLLGKINLKALAALAKKIL [Transportan 10]	BBB organoid permeability [1, 2]: High
High	–	ZHARIKPTFRRLKWKYKGKFW [L-2]	–
High	–	ZKGTYKKKLMRIPLKGT [SVM3]	–
Very high	Yes [6]	ZLRRERQSRLRRERQSR [DPV15]	–
High	–	ZLYKKGPAKKGRPPLRGWFH [SVM4]	–
–	–	ZPLSSIFSRIGDP [PreS2-TLM]	BBB organoid permeability [1, 2]: High
High	–	ZPPRPPRPPR [(PPR)3]	–
High	–	ZPPRPPRPPRPPRPPR [(PPR)5]	–
–	Yes [31]	ZRGGRLSYSRRRFSTSTGR [SynB1]	–
–	–	ZRKKRRQRRR [HIV-1 Tat]	BBB organoid permeability [1, 2]: High; BBB penetration in vivo: Yes [31]
High	Yes [31]	ZRQIKIWFQNRRMKWKK [Penetratin]	–
Very high	Yes [6]	ZRQVTIWFQNRRVKEKK [HoxA-13]	–
High	–	ZRRRRRRRR [Polyarginine]	–
Very high	–	ZSQIKIWFQNKRAKIKK [Engrailed-2]	–
High	–	ZVELPPPVELPPPVELPPP [SAP(E)]	–
High	–	ZVKRGLKLRHVRPRVTRMDV [DPV1047]	–
Very high	Yes [6]	ZVPALR [Bip(1)]	–
High	–	ZVRLPPPVRLPPPVRLPPP [SAP]	–
Very high	Yes [6]	ZVSALK [Bip(2)]	–
